The text below walks through data of BindingDB's records for doi:10.1007/s10822-022-00478-x (Roche Innovation Center Basel, F. Hoffmann-La Roche Ltd., 2022).

The experiment addresses cAMP and cAMP-inhibited cGMP 3',5'-cyclic phosphodiesterase 10A (Homo sapiens, UniProt Q9Y233). Nature of the experiment: PDE10A assay. In a few lines:
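Scintillation proximity readout of [3H]cGMP hydrolysis (50 nM final substrate, 15 min) by 2 ng/well human PDE10A after 15 min compound preincubation at RT, pH 7.5 with MgCl2. Four-parameter logistic fit gave IC50, reported as pIC50.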

Each structure is given as a SMILES string.

The term IC50 denotes the concentration needed to halve the response being measured. For `O=C(Nc1ccn([C@]23C[C@H]4C[C@H](C[C@H](C4)C2)C3)n1)c1nc(C2CC2)ccc1Nc1cncnc1` [Roche-Dataset for PDE10A, Compound 537], the IC50 was 12 nM.

The compound `O=C1c2ccccc2CN1c1ccc2nc(-c3ccccc3)[nH]c2c1` [Roche-Dataset for PDE10A, Compound 307] displayed an IC50 of 371 nM.

As to `Cn1cc(-c2ccccc2)nc1CCNC(=O)c1nc(C2CC2)cnc1Nc1cncnc1` [Roche-Dataset for PDE10A, Compound 36], the IC50 was found to be 16 nM.

For the compound `Cn1ccc(NC(=O)c2nc(C3CC3)ccc2Nc2cncnc2)n1` [Roche-Dataset for PDE10A, Compound 883], half-maximal inhibition (IC50) was put at 118 nM.

`CNC(=O)c1cc2[nH]c(-c3ccccc3)nc2cc1NC(=O)c1cc(C)nn1C(C)(C)C` [Roche-Dataset for PDE10A, Compound 558] showed an IC50 of 944 nM.

Turning to `Cn1cc(-c2ccccc2)nc1COc1nc2ccccc2nc1N1CCCC1` [Roche-Dataset for PDE10A, Compound 403], it took 7.71 nM to reach half-maximal inhibition (IC50).

With `CCc1cnc(C)n2nc(CCc3nc(N4CCCC4)nn3C)nc12` [Roche-Dataset for PDE10A, Compound 584], the midpoint of inhibition, the IC50, lay at 2.86 nM.

For `Cn1ncc(C(=O)N2CCC2)c1C(=O)Nc1cc(C2CCC2)n[nH]1` [Roche-Dataset for PDE10A, Compound 1078], the IC50 was 10000 nM.

The compound `Cc1ncc(C)n2nc(/C=C/c3nc(Br)cn3-c3ccccc3)nc12` [Roche-Dataset for PDE10A, Compound 648] came in with an IC50 of 202 nM.

Compound `O=C(N[C@@H]1C[C@@H](CO)N(c2ccc(Cl)cn2)C1)c1nc(C2CC2)ccc1Nc1cncnc1` [Roche-Dataset for PDE10A, Compound 118] gave an IC50 of 2.35 nM.

As for `O=C(Nc1nc(CN2CCCCC2)cs1)c1nc(C2CC2)cnc1Nc1cncnc1` [Roche-Dataset for PDE10A, Compound 832], the midpoint of inhibition, the IC50, lay at 32 nM.

Consider `O=C(Nc1cccc(N2CCC(O)CC2)c1)c1nc(C2CC2)cnc1Nc1cncnc1` [Roche-Dataset for PDE10A, Compound 703], for which half-maximal inhibition (IC50) was put at 13 nM.

`CCN(CC)C(=O)c1c(C)noc1C(=O)Nc1ccn2nc(-c3ccccc3)nc2c1` [Roche-Dataset for PDE10A, Compound 258]: half-maximal inhibition (IC50) was put at 3120 nM.

`Cn1cc(-c2ccccc2)nc1CCc1cncc(-c2ccn[nH]2)n1` [Roche-Dataset for PDE10A, Compound 289] showed an IC50 of 307 nM.

`CCOC(=O)Cn1nc(-c2ccccn2)cc1NC(=O)c1nc(C2CC2)ccc1Nc1cncnc1` [US8470820, 15]: the IC50 stood at 3.74 nM.

`Cc1ncc(C)n2nc(/C=C/c3nc(N4CCN(C(=O)OC(C)(C)C)CC4)nn3C)nc12` [Roche-Dataset for PDE10A, Compound 1119] yielded an IC50 of 402 nM.

For `Cn1ncc(C(=O)N2CCC2)c1C(=O)Nc1ccn(CC2CC2)n1` [Roche-Dataset for PDE10A, Compound 1075], the IC50 came to 329 nM.

Turning to `O=C(c1nc(C2CC2)cnc1Nc1cncnc1)N1CCN(c2ccccc2F)CC1` [Roche-Dataset for PDE10A, Compound 975], the midpoint of inhibition, the IC50, lay at 6170 nM.

In turn, `O=C(Nc1cccc(N2CCS(=O)(=O)CC2)c1)c1nc(C2CC2)cnc1Nc1cncnc1` [Roche-Dataset for PDE10A, Compound 777] gave an IC50 of 22 nM.

Compound `O=C(Nc1ccnn1S(=O)(=O)C(F)(F)F)c1nc(C2CC2)ccc1Nc1cncnc1` [Roche-Dataset for PDE10A, Compound 1004] returned an IC50 of 30 nM.

In the case of `O=C(Nc1ccn(CC(F)(F)F)n1)c1nc(C2CC2)ccc1Nc1cncnc1` [Roche-Dataset for PDE10A, Compound 603], the IC50 was found to be 6.39 nM.

In the case of `CC(C)OC(=O)c1c(C(=O)Nc2ccn3nc(-c4ccccc4)nc3c2)cnn1C` [Roche-Dataset for PDE10A, Compound 428], the IC50 is 15 nM.

As to `CNC(=O)c1cnn(C)c1C(=O)Nc1ccn2cc(-c3cccc(F)c3)nc2n1` [Roche-Dataset for PDE10A, Compound 656], the IC50 came out at 62 nM.

Compound `Cc1ncc(C)n2nc(CCc3nc(N4CCNC4=O)nn3C)nc12` [Roche-Dataset for PDE10A, Compound 887] showed an IC50 of 1060 nM.

As to `Cc1[nH]c(-c2ccncc2)nc1CCN1C(=O)c2ccccc2C1=O` [Roche-Dataset for PDE10A, Compound 395], the IC50 was determined as 17400 nM.

The compound `CCCn1ccc(NC(=O)c2nc(C3CC3)ccc2Nc2cncnc2)n1` [Roche-Dataset for PDE10A, Compound 643] had an IC50 of 14 nM.

Compound `O=C(Nc1ccn2nc(-c3ccccc3)nc2c1)c1cc(Cl)nc(Cl)c1` [Roche-Dataset for PDE10A, Compound 327] displayed an IC50 of 38 nM.

`Cn1nc(NC(=O)c2c(C(=O)N3CCC3)cnn2C)cc1C(=O)N1CCCCC1` [Roche-Dataset for PDE10A, Compound 941] had an IC50 of 10000 nM.

With `COc1ccc2c(=O)n(C)c3cnc(-c4ccccc4Cl)n3c2c1` [Roche-Dataset for PDE10A, Compound 1048], the IC50 was found to be 432 nM.

Consider `Cn1ncc(C(=O)N2CCC2)c1C(=O)Nc1cn(-c2ccccn2)cn1` [Roche-Dataset for PDE10A, Compound 833], for which the IC50 is 46 nM.

The compound `CCn1nc(NC(=O)c2c(C(=O)N3CCC3)cnn2C)cc1-c1cccc(Cl)c1` [Roche-Dataset for PDE10A, Compound 744] returned an IC50 of 1630 nM.

Consider `CCCc1cccc(NC(=O)c2nc(C3CC3)cnc2Nc2cncnc2)n1` [Roche-Dataset for PDE10A, Compound 963], for which it took 16 nM to reach half-maximal inhibition (IC50).

Regarding `O=C(Nc1cccc(OCC(F)(F)F)c1)c1nc(C2CC2)cnc1Nc1cncnc1` [Roche-Dataset for PDE10A, Compound 694], the IC50 came out at 16 nM.

For `Cc1ncc(C)n2nc(/C=C/c3nc(N4CC[C@@H](NC(=O)OC(C)(C)C)C4)nn3C)nc12` [Roche-Dataset for PDE10A, Compound 1132], the IC50 amounted to 752 nM.

For the compound `CC(C)Cn1ccc(NC(=O)c2c(C(=O)N3CCC3)cnn2C)n1` [Roche-Dataset for PDE10A, Compound 1055], the IC50 was 258 nM.

For the compound `Cn1ncc(C(=O)N2CCC2)c1C(=O)N[C@@H]1CCn2cc(-c3cccc(Cl)c3)nc2C1` [Roche-Dataset for PDE10A, Compound 161], the IC50 was determined as 6.59 nM.

In the case of `Cc1cccc(CCc2nc(-c3ccccc3)cn2C)n1` [Roche-Dataset for PDE10A, Compound 328], the midpoint of inhibition, the IC50, lay at 9270 nM.

In turn, `Cc1nc(C)n2nc(/C=C/c3nc(N4CCCC4)nn3C)nc2c1Cl` [Roche-Dataset for PDE10A, Compound 382] gave an IC50 of 24 nM.

Consider `CC(C)CNC(=O)c1c(NC(=O)c2c(C(=O)N3CCC3)cnn2C)cnn1C` [Roche-Dataset for PDE10A, Compound 1069], for which half-maximal inhibition (IC50) was put at 462 nM.

For the compound `O=C(Nc1cc(Cl)ncc1Br)c1ccc2cc(-c3ccccc3)nn2c1` [Roche-Dataset for PDE10A, Compound 399], the IC50 is 354 nM.

In turn, `CN(C)CCn1nc(-c2ccccn2)cc1NC(=O)c1nc(C2CC2)ccc1Nc1cncnc1` [US8470820, 12] yielded an IC50 of 1.05 nM.

The compound `Cn1ncc(C(=O)N2CCC2)c1C(=O)N[C@@H]1CCn2cc(-c3ccccc3OC(F)F)nc2C1` [Roche-Dataset for PDE10A, Compound 257] came in with an IC50 of 6.04 nM.

Regarding `Cn1cc(-c2ccccc2)nc1CCc1nc(N2CCOCC2)c2cc(Cl)ccc2n1` [Roche-Dataset for PDE10A, Compound 54], it took 1.08 nM to reach half-maximal inhibition (IC50).

In the case of `Cc1cccc(-c2cn3c(n2)C[C@H](NC(=O)c2c(C(=O)N(C)C)cnn2C)CC3)c1` [Roche-Dataset for PDE10A, Compound 241], the IC50 turned out to be 34 nM.

Consider `Cn1nc(-c2ccccn2)cc1NC(=O)c1c(I)cc[nH]c1=O` [Roche-Dataset for PDE10A, Compound 774], for which the IC50 was found to be 2800 nM.

The compound `CCCCc1cc(NC(=O)c2c(C(=O)N3CCC3)cnn2C)nn1C1CCCC1` [Roche-Dataset for PDE10A, Compound 966] showed an IC50 of 568 nM.

Regarding `CNc1nc2cc(NC(=O)c3c(C(=O)N4CCC4)cnn3C)ccn2n1` [Roche-Dataset for PDE10A, Compound 704], inhibition was half-maximal at 7.7 nM (IC50).

Consider `O=C(Nc1cccc(S(=O)(=O)CCO)c1)c1nc(C2CC2)cnc1Nc1cncnc1` [Roche-Dataset for PDE10A, Compound 734], for which half-maximal inhibition (IC50) required 8.52 nM.

In the case of `COCCn1ccc(NC(=O)c2nc(C3CC3)ccc2Nc2cncnc2)n1` [Roche-Dataset for PDE10A, Compound 640], the IC50 amounted to 14 nM.

With `O=C(NCCN1CCCC1=O)c1nc(C2CC2)cnc1Nc1cncnc1` [Roche-Dataset for PDE10A, Compound 779], it took 2070 nM to reach half-maximal inhibition (IC50).

On to `O=C(Nc1ccc(N2CCOCC2=O)cc1)c1nc(C2CC2)ccc1Nc1cncnc1` [Roche-Dataset for PDE10A, Compound 686], for which the IC50 worked out at 43 nM.

`COCCn1ncc(NC(=O)c2nc(C3CC3)ccc2Nc2cncnc2)c1C(=O)N(C)C` [Roche-Dataset for PDE10A, Compound 944]: the IC50 came out at 13 nM.

On to `O=C(NCc1cnn(-c2ccccc2)n1)c1nc(C2CC2)cnc1Nc1cncnc1` [Roche-Dataset for PDE10A, Compound 727], for which half-maximal inhibition (IC50) was put at 59 nM.

`CNC(=O)c1cc2[nH]c(-c3ccccc3)nc2cc1NC(=O)c1c(Cl)c(C)nn1C` [Roche-Dataset for PDE10A, Compound 358] returned an IC50 of 22 nM.

The compound `Clc1ccc2nc(CCc3nc4ccc(Cl)cn4n3)nn2c1` [Roche-Dataset for PDE10A, Compound 780] displayed an IC50 of 77 nM.

Consider `CC(C)Cn1ccc(NC(=O)c2nc(C3CC3)ccc2Nc2cncnc2)n1` [Roche-Dataset for PDE10A, Compound 624], for which the IC50 is 5.89 nM.

Turning to `Cn1ncc(C(=O)N2CCOCC2)c1C(=O)N[C@@H]1CCn2cc(-c3ccccc3Cl)nc2C1` [Roche-Dataset for PDE10A, Compound 457], inhibition was half-maximal at 2410 nM (IC50).

Turning to `Cc1nc2ccccc2nc1OCc1csc(N2CCOCC2)n1` [Roche-Dataset for PDE10A, Compound 951], the IC50 was 2370 nM.
